Changes are numbered by the printed parent chain. Blank lines part the entries; values can stand above or below the molecule they belong to.
Assays:
α-SMA promoter [1] = assay: α-SMA-luciferase reporter in neonatal rat CFs with daily TGF-β1, model of NP resistance; format: cell-based
Protocol: Neonatal rat CFs were transfected with an α-SMA-luciferase reporter construct driven by TGF-β1 induction of the α-SMA promoter. After 24 hours, cells were treated daily with […] TGF-β1 for up to 4 days. On each successive day, some of the cells were treated with NP (ANP, 100 nM), and luciferase activity measured.

[2] = tested on: cardiac fibroblasts (CFs); assay: bFGF-induced α-SMA protein expression in CFs (Western blot); format: cell-based, rat; details: cells with insertless vector; 10 ng/ml FGF 48 hours; 100 nM ANP
Protocol: (§1) NP's ability to inhibit growth factor-induced CF differentiation into myofibroblasts was determined as follows. CFs were transiently transfected with insertless pcDNA3 vector or pcDNA3 encoding sNRF^(806-900) (see Example 7). The transfected CFs were then treated for 48 hours with 10 ng/ml basic fibroblast growth factor (FGF; Sigma-Aldrich #F0291) in the presence or absence of 100 nM ANP. Alpha-smooth muscle actin (α-SMA) protein expression, the principal marker of CF differentiation, was assessed by Western blotting and immunofluorescence microscopy. Vimentin staining was used as a loading control because it is expressed equally in fibroblasts and transdifferentiated myofibroblasts.

[3] = tested on: cardiac fibroblasts (CFs); assay: Vimentin localisation in CFs by immunofluorescence microscopy; format: cell-based, rat; details: in the presence of ANP
Protocol: as §1
For the immunofluorescence microscopy, slide wells were treated as described in Example 7 and incubated with anti-α-SMA and anti-vimentin antibody as well as phalloidin to stain for actin. Briefly, cells were rinsed twice with phosphate-buffered saline (PBS) and fixed with 3.7% formaldehyde in PBS for 10 minutes. After fixation, cells were rinsed with PBS and permeabilized with 0.3% Triton X-100 in PBS for 10 minutes and blocked for 1 hour in 1% horse serum, 0.2% bovine serum albumin in PBS. Cells were then incubated with primary α-SMA antibody (ABCAM ab7817) and primary vimentin antibody (ABCAM ab7783) diluted in blocking solution for 1 hour and washed three times with blocking solution for 5 minutes. […]

α-SMA promoter [4] = assay: TGF-β1-induced α-SMA-luciferase reporter in CFs transfected with pcDNA3-sNRF or control vector; format: cell-based; details: for inhibitory effect on sNRF action (loss of NP inhibition of α-SMA-luciferase): sNRF-transfected CFs, TGF-β1 + ANP, 24 hours
Protocol: TGF-β1 signaling is required for angiotensin effects in the heart, and NPs oppose TGF-β1 effects in CFs. […] CFs were transiently transfected with the α-SMA-luciferase vector and pcDNA3 control vector or pcDNA3-sNRF, then treated for 24 hours with TGF-β1, ANP, and the angiotensin-converting enzyme inhibitor captopril (CAP) or the angiotensin receptor-1 blocker losartan (LOS).

PKG [5] = target: T1, PKG (Homo sapiens, UniProt Q13976); assay: Immunofluorescence of NP-induced PKG membrane translocation in HEK-NPRA cells; format: cell-based; details: fragment expressed in HEK-NPRA cells; ANP 100 nM 15 minutes
T1 construct: endogenous in cells; host or cells: HEK293 stably over-expressing FLAG-NPRA (HEK-NPRA)
T1 sequence (Q13976 1-671): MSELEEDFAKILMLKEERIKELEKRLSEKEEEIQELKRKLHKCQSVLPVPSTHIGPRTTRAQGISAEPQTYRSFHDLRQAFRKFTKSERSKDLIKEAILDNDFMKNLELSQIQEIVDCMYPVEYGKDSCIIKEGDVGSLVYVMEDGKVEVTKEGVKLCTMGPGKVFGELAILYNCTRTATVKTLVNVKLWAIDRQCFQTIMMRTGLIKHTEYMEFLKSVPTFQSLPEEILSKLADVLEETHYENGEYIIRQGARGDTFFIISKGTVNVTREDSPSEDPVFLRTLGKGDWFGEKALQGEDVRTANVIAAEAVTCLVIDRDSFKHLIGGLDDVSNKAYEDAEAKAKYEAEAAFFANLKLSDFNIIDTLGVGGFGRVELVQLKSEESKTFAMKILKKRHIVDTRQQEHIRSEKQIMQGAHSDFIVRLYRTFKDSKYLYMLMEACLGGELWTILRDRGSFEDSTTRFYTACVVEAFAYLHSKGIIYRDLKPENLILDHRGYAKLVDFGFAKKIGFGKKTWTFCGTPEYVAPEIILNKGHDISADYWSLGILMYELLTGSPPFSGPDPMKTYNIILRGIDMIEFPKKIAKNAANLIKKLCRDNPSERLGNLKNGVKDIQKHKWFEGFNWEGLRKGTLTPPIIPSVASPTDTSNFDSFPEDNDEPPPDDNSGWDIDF
Protocol: HEK-NPRA cells were transiently transfected with insertless pcDNA3 plasmid vector or pcDNA3-sNRF^(806-1061). All slide wells were treated with atrial natriuretic peptide (ANP) (100 nM; Sigma-Aldrich #A1663) for 15 minutes. Cells were decorated with monoclonal flag antibody specific for FLAG-NPRA (red) and polyclonal PKG antibody (green). Overlapping regions of PKG and NPRA appeared yellow-orange. PKG staining was absent when anti-PKG antibody was pre-adsorbed with recombinant PKG protein (Calbiochem).

PKG [6] = target: T2, PKG (Rattus norvegicus, UniProt A9LNM8); assay: Co-immunoprecipitation of PKG with FLAG-tagged NPRA fragments in primary CFs; format: binding; details: 5'-FLAG-tagged fragment in transfected CFs, anti-FLAG M2 affinity gel
T2 construct: endogenous in cells; host or cells: primary neonatal rat cardiac fibroblasts transfected with 5'-FLAG sNRF fragments
T2 sequence (A9LNM8 1-671): T1 sequence (Q13976 1-671) with E227D, T265K, N267S, G291E, K499E, N586S, N656S
Protocol: Neonatal rat ventricular fibroblasts (CFs) were cultured from 1 to 2-day-old Harlan Sprague-Dawley rats as described previously (Simpson, Circulation Res. 56:884-94, 1985). Briefly, ventricles were dissected free from atria and quartered. Following dissociation in ADS buffer containing 1.5 mg/ml trypsin (Gibco #27250-018) and 1% DNase solution (2 mg/ml DNase type II, 150 mM NaCl) with serum neutralization the collected cells were pre-incubated in media at 37° C. for 90 minutes to allow CF attachment to the bottom of culture dishes. CFs were incubated in plating media for 48 hours, divided into 6-well culture plates or dual-well chamberslides, and grown to 50% confluency in DMEM with 10% FBS prior to use.
CFs were transiently transfected with nucleic acid molecules encoding sNRF^(806-1061), sNRF^(806-900), or sNRF^(806-860) using routine methods. Briefly, PCR-generated, 5′-FLAG epitope-tagged sNRFs were subcloned into the BamHI and EcoRI sites of pCDNA3 (Invitrogen) and sequenced to verify construction accuracy. […]
The ability of the NPRA fragments to immunoprecipitate PKG was determined in the primary CF cells transfected with the 5′-FLAG epitope-tagged NPRA fragments as follows. […] Bound antibody was detected with chemiluminescent substrate (Western Lightning ECL, PerkinElmer Life Sciences).

expression of the luciferase reporter construct driven by TGF-β1 induction of the α-SMA promoter (α-SMA promoter [1]; NP (ANP, 100 nM) 24 hours, 100 nM TGF-β1): almost completely inhibited
Molecule: CC[C@H](C)[C@@H]1NC(=O)[C@H](CCCNC(=N)N)NC(=O)[C@H](CC(=O)O)NC(=O)[C@H](CCSC)NC(=O)[C@H](CCCNC(=N)N)NC(=O)CNC(=O)CNC(=O)[C@H](Cc2ccccc2)NC(=O)[C@@H](NC(=O)[C@H](CO)NC(=O)[C@H](CO)NC(=O)[C@H](CCCNC(=N)N)NC(=O)[C@H](CCCNC(=N)N)NC(=O)[C@H](CC(C)C)NC(=O)[C@@H](N)CO)CSSC[C@@H](C(=O)N[C@@H](CC(N)=O)C(=O)N[C@@H](CO)C(=O)N[C@@H](Cc2ccccc2)C(=O)N[C@@H](CCCNC(=N)N)C(=O)N[C@@H](Cc2ccc(O)cc2)C(=O)O)NC(=O)CNC(=O)[C@H](CC(C)C)NC(=O)CNC(=O)[C@H](CO)NC(=O)[C@H](CCC(N)=O)NC(=O)[C@H](C)NC(=O)CNC1=O [ANP, atrial natriuretic peptide]
NP's inhibitory effect on TGF-β1-induced α-SMA-luciferase (α-SMA promoter [1]; progressively longer periods of NP treatment, up to 4 days): steady decline in NP's inhibitory effects
bFGF-induced α-SMA protein expression [2]: inhibited bFGF-induced α-SMA protein expression
nuclear to cytosolic translocation of vimentin [3]: nuclear to cytosolic translocation of vimentin was observed
TGF-β1-induced α-SMA-luciferase expression (α-SMA promoter [4]; cells that do not over-express sNRF): inhibits TGF-β1-induced α-SMA-luciferase expression

inhibitory effect on sNRF action (loss of NP inhibition of α-SMA-luciferase) (α-SMA promoter [4]): no significant inhibitory effect
Molecule: C[C@H](CS)C(=O)N1CCC[C@H]1C(=O)O [captopril]

inhibitory effect on sNRF action (loss of NP inhibition of α-SMA-luciferase) (α-SMA promoter [4]): no significant inhibitory effect
Molecule: CCCCc1nc(Cl)c(CO)n1Cc1ccc(-c2ccccc2-c2nn[nH]n2)cc1 [losartan]
NP-inhibition of TGF-β1 induction of α-SMA-luciferase (α-SMA promoter [4]; non-sNRF transfected cells): blocks NP-inhibition of TGF-β1 induction of α-SMA-luciferase

co-immunoprecipitation of PKG (PKG [6]): co-immunoprecipitated PKG
Molecule: sNRF^(806-1061): intracellular NPRA fragment, residues 806-1061, with hinge domain and C-terminal guanylyl cyclase domain; expressed FLAG-tagged
translocation of cytosolic PKG to the plasma membrane (PKG [5]): inhibited translocation of cytosolic PKG to the plasma membrane

From patent publication US7943296B2, “Methods of screening using a natriuretic peptide receptor” (Oregon Health & Science University, priority 2005, dated 2011)
